In brackets after ≈: the same amount, converted by molar mass.
Legend:
[1] = system: VZV strain Ellen; assay: VZV Antiviral (ELISA) Assay; assay type: cell-based, varicella-zoster virus; conditions: human foreskin fibroblast cells; for IC50 / inhibition at 10 µg/mL: Human alphaherpesvirus 3, Fibroblast; for IC50: read-out: IC50 Ug/ml VZV; for inhibition at 10 µg/mL: read-out: % inhibition 10 ug/ml VZV, 10 ug/ml
How it was run: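 First, fibroblasts are infected at multiplicity below 0.1 and kept overnight. The harvested cell mixture then goes onto compound-containing wells for three days at 37° C. Finally, cells are fixed and viral gpII is measured by fluorogenic ELISA.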

[2] = system: HCMV wild-type; assay: HCMV yield assay; assay type: cell-based, human cytomegalovirus; conditions: human foreskin fibroblasts; for IC50: Human betaherpesvirus 5, Fibroblast, read-out: IC50 Ug/ml HCMV
How it was run: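 Value is the compound amount cutting virus yield titer by 50% (IC50) or 90% (IC90). Human foreskin fibroblasts infected with wild-type HCMV (MOI typically 0.2) under varying compound; progeny harvested day 3, titered compound-free on fibroblasts, plaques scored at 2 weeks.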

[3] = system: HSV-1; assay: HSV Antiviral (ELISA) Assay; assay type: cell-based, herpes simplex virus type 1; conditions: Vero cells, HSV-1; for IC50: Human alphaherpesvirus 1, Vero, read-out: IC50 Ug/ml HSV
How it was run: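 Replication measured as glycoprotein D signal in fixed cells: anti-gD antibody plus β-galactosidase-linked secondary, fluorogenic substrate read at 365/450 nm. Vero cells (2% FBS DMEM) received compound 30 min pre-infection, HSV-1 MOI 0.006, ~24 h incubation; IC50 relative to no-compound fluorescence.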

Structure (SMILES) | IC50 [1] | inhibition at 10 µg/mL [1] | IC50 [2] | IC50 [3] | % inhibition 10 ug/ml VZV [1] | IC50 Ug/ml VZV [1] | IC50 Ug/ml HCMV [2] | IC50 Ug/ml HSV [3]
COc1cc(OC)c(NC(=S)Nc2cc(OC)c(NC(C)=O)cc2C)cc1Cl [Example 285, N-{4-[3-(5-Chloro-2,4-dimethoxy-phenyl)-thioureido]-2-methoxy-5-methyl-phenyl}-acetamide] | > 10 µg/mL | 18% | > 50 µg/mL | > 50 µg/mL | – | – | – | –
COc1ccc(NC(=S)Nc2ccc(NC(C)=O)cc2)cc1C(F)(F)F [Example 290, N-{4-[3-(4-Methoxy-3-trifluoromethyl-phenyl)-thioureido]-phenyl}-acetamide] | > 10 µg/mL | 1% | 5 µg/mL (≈ 13 µM) | > 50 µg/mL | – | – | – | –
CC(=O)Nc1ccc(NC(=S)Nc2ccc(N(C)CCO)c(Cl)c2)cc1 [Example 291] | – | – | – | – | 18% | >10 Ug/ml | 6 Ug/ml | >50 Ug/ml
COc1cc(OC)c(NC(=S)Nc2ccc(NC(C)=O)c(C(=O)c3ccccc3)c2)cc1Cl [Example 292, N-{2-Benzoyl-4-[3-(5-chloro-2,4-dimethoxy-phenyl)-thioureido]-phenyl}-acetamide] | 13 µg/mL (≈ 26.9 µM) | 70% | > 10 µg/mL | > 50 µg/mL | – | – | – | –
COc1cc(OC)c(NC(=S)Nc2ccc(NC(C)=O)cc2C)cc1Cl [Example 297, N-{4-[3-(5-Chloro-2,4-dimethoxy-phenyl)-thioureido]-3-methyl-phenyl}-acetamide] | > 10 µg/mL | 23% | > 10 µg/mL | 1 µg/mL (≈ 2.54 µM) | – | – | – | –
CC(=O)Nc1ccc(NC(=S)Nc2ccc(N(C)CCCN(C)C)c(Cl)c2)cc1 [Example 298, N-[4-(3-{3-Chloro-4-[(3-dimethylamino-propyl)-methyl-amino]-phenyl}-thioureido)-phenyl]-acetamide] | > 10 µg/mL | 1% | 15 µg/mL (≈ 34.6 µM) | > 50 µg/mL | – | – | – | –
CC(=O)Nc1ccc(NC(=S)Nc2ccc(NC3CCCCC3)c(Cl)c2)cc1 [Example 299, N-{4-[3-(3-Chloro-4-cyclohexylamino-phenyl)-thioureido]-phenyl}-acetamide] | 3.8 µg/mL (≈ 9.11 µM) | 72% | 6 µg/mL (≈ 14.4 µM) | > 10 µg/mL | – | – | – | –
CC(=O)Nc1ccc(NC(=S)Nc2ccc(N(C)CCN(C)C)c(Cl)c2)cc1 [Example 300] | – | – | – | – | 23% | >10 Ug/ml | 1.5 Ug/ml | >50 Ug/ml
COc1cc(OC)c(NC(=S)Nc2ccc(NC(C)=O)c(C(F)(F)F)c2)cc1Cl [Example 305, N-{4-[3-(5-Chloro-2,4-dimethoxy-phenyl)-thioureido]-2-trifluoromethyl-phenyl}-acetamide] | > 10 µg/mL | 32% | > 10 µg/mL | > 10 µg/mL | – | – | – | –
COc1cc(OC)c(NC(=S)Nc2ccc(NC(C)=O)c(C)c2)cc1Cl [Example 309, N-{4-[3-(5-Chloro-2,4-dimethoxy-phenyl)-thioureido]-2-methyl-phenyl}-acetamide] | > 10 µg/mL | 22% | 25 µg/mL (≈ 63.5 µM) | 8 µg/mL (≈ 20.3 µM) | – | – | – | –
CC(=O)Nc1ccc(NC(=S)Nc2ccc(NC(C)=O)c(Cl)c2)cc1 [Example 312, N-{4-[3-(4-Acetylamino-phenyl)-thioureido]-2-chloro-phenyl}-acetamide] | > 10 µg/mL | 22% | 50 µg/mL (≈ 133 µM) | 50 µg/mL (≈ 133 µM) | – | – | – | –
CCOC(=O)Nc1ccc(NC(=S)Nc2ccc(NC(C)=O)cc2)cc1Cl [Example 313, {4-[3-(4-Acetylamino-phenyl)-thioureido]-2-chloro-phenyl}-carbamic acid ethyl ester] | > 10 µg/mL | 36% | > 10 µg/mL | > 10 µg/mL | – | – | – | –
COc1cc(OC)c(NC(=S)Nc2ccc(NC(C)=O)nc2)cc1Cl [Example 314, N-{5-[3-(5-Chloro-2,4-dimethoxy-phenyl)-thioureido]-pyridin-2-yl}-acetamide] | > 10 µg/mL | 34% | 30 µg/mL (≈ 78.8 µM) | 2 µg/mL (≈ 5.25 µM) | – | – | – | –
CC(=O)Nc1ccc(NC(=S)Nc2ccc(NC3CCN(Cc4ccccc4)CC3)c(Cl)c2)cc1 [Example 315, N-(4-{3-[4-(1-Benzyl-piperidin-4-ylamino)-3-chloro-phenyl]-thioureido}-phenyl)-acetamide] | > 10 µg/mL | 40% | 1.5 µg/mL (≈ 2.95 µM) | 8 µg/mL (≈ 15.7 µM) | – | – | – | –
CC(=O)Nc1ccc(NC(=S)Nc2ccc(NCCN(C)C)c(Cl)c2)cc1 [Example 316, N-(4-{3-[3-Chloro-4-(2-dimethylamino-ethylamino)-phenyl]-thioureido}-phenyl)-acetamide] | > 10 µg/mL | 56% | > 50 µg/mL | 30 µg/mL (≈ 73.9 µM) | – | – | – | –
COCCN(C)c1ccc(NC(=S)Nc2ccc(NC(C)=O)cc2)cc1Cl [Example 317, N-[4-(3-{3-Chloro-4-[(2-methoxy-ethyl)-methyl-amino]-phenyl}-thioureido)-phenyl]-acetamide] | > 10 µg/mL | 30% | 2 µg/mL (≈ 4.91 µM) | 35 µg/mL (≈ 86 µM) | – | – | – | –
CC(=O)Nc1ccc(NC(=S)Nc2ccc(NCCCN(C)C)c(Cl)c2)cc1 [Example 318, N-(4-{3-[3-Chloro-4-(3-dimethylamino-propylamino)-phenyl]-thioureido}-phenyl)-acetamide] | > 10 µg/mL | 26% | > 50 µg/mL | > 50 µg/mL | – | – | – | –
CC(=O)Nc1ccc(NC(=S)Nc2ccc(NC3CCN(Cc4ccccc4)C3)c(Cl)c2)cc1 (stereo not shown) [Example 319, N-(4-{3-[4-(1-Benzyl-pyrrolidin-3-ylamino)-3-chloro-phenyl]-thioureido}-phenyl)-acetamide] | 7 µg/mL (≈ 14.2 µM) | 82% | 5 µg/mL (≈ 10.1 µM) | 6 µg/mL (≈ 12.1 µM) | – | – | – | –
COc1cc(OC)c(NC(=S)Nc2cc(O)c(NC(C)=O)cc2Cl)cc1Cl [Example 321, N-{5-Chloro-4-[3-(5-chloro-2,4-dimethoxy-phenyl)-thioureido]-2-hydroxy-phenyl}-acetamide] | > 10 µg/mL | 28% | 18 µg/mL (≈ 41.8 µM) | 7 µg/mL (≈ 16.3 µM) | – | – | – | –
COc1cc(OC)c(NC(=S)Nc2cc(C)c(NC(C)=O)cc2Cl)cc1Cl [Example 326, N-{5-Chloro-4-[3-(5-chloro-2,4-dimethoxy-phenyl)-thioureido]-2-methyl-phenyl}-acetamide] | > 10 µg/mL | 19% | > 10 µg/mL | 10 µg/mL (≈ 23.3 µM) | – | – | – | –
COc1cc(OC)c(NC(=S)Nc2ccc(NC(C)=O)c3ccccc23)cc1Cl [Example 329, N-{4-[3-(5-Chloro-2,4-dimethoxy-phenyl)-thioureido]-naphthalen-1-yl}-acetamide] | > 10 µg/mL | 38% | > 10 µg/mL | 4 µg/mL (≈ 9.3 µM) | – | – | – | –
CC(=O)Nc1ccc(NC(=S)Nc2ccc(OC3CCN(C)C3)c(Cl)c2)cc1 (stereo not shown) [Example 334, N-(4-{3-[3-Chloro-4-(1-methyl-pyrrolidin-3-yloxy)-phenyl]-thioureido}-phenyl)-acetamide] | > 10 µg/mL | 7% | 18 µg/mL (≈ 43 µM) | 35 µg/mL (≈ 83.5 µM) | – | – | – | –
CC(=O)Nc1ccc(NC(=S)Nc2ccc(OC3CCN(C)CC3)c(Cl)c2)cc1 [Example 335, N-(4-{3-[3-Chloro-4-(1-methyl-piperidin-4-yloxy)-phenyl]-thioureido}-phenyl)-acetamide] | > 10 µg/mL | 8% | 30 µg/mL (≈ 69.3 µM) | 30 µg/mL (≈ 69.3 µM) | – | – | – | –
CC(=O)Nc1ccc(NC(=S)Nc2ccc(OCCCN(C)C)c(Cl)c2)cc1 [Example 336, N-(4-{3-[3-Chloro-4-(3-dimethylamino-propoxy)-phenyl]-thioureido}-phenyl)-acetamide] | > 10 µg/mL | 17% | 50 µg/mL (≈ 119 µM) | 40 µg/mL (≈ 95 µM) | – | – | – | –
COc1cc(OC)c(NC(=S)Nc2ccc(NC(C)=O)c(C(=O)O)c2)cc1Cl [Example 337, 2-Acetylamino-5-[3-(5-chloro-2,4-dimethoxy-phenyl)-thioureido]-benzoic acid] | > 10 µg/mL | 31% | > 50 µg/mL | > 50 µg/mL | – | – | – | –
CC(=O)Nc1ccc(NC(=S)Nc2ccc(OCCN(C)C)c(Cl)c2)cc1 [Example 343, N-(4-{3-[3-Chloro-4-(2-dimethylamino-ethoxy)-phenyl]-thioureido}-phenyl)-acetamide] | > 10 µg/mL | 38% | 40 µg/mL (≈ 98.3 µM) | > 50 µg/mL | – | – | – | –
CC(=O)Nc1ccc(NC(=S)Nc2ccc(OC3CCCCC3)c(Cl)c2)cc1 [Example 345, N-{4-[3-(3-Chloro-4-cyclohexyloxy-phenyl)-thioureido]-phenyl}-acetamide] | > 10 µg/mL | 30% | > 10 µg/mL | > 10 µg/mL | – | – | – | –
COc1cc(OC)c(NC(=S)Nc2ccc(NC(C)=O)cc2C(F)(F)F)cc1Cl [Example 358, N-{4-[3-(5-Chloro-2,4-dimethoxy-phenyl)-thioureido]-3-trifluoromethyl-phenyl}-acetamide] | > 10 µg/mL | 31% | > 10 µg/mL | 2 µg/mL (≈ 4.47 µM) | – | – | – | –

Source: patent US6335350B1, “Acetamide and substituted acetamide-containing thiourea inhibitors of herpes viruses” (American Home Products Corporation, priority 1998, dated 2002)
